From patent US12636238B2, “Hypochlorous acid-based eyelid cleansers” (OCuSOFT, Inc., priority 2023, dated 2026)
Where two headings read alike, the source gives them in different places. Blank lines part the entries; values can stand above or below the compound they belong to.

Experiment: comparative stability of hypochlorous acid in the presence of various ingredients (free available chlorine, FAC)
Assay type: physicochemical
Excerpt: Free available chlorine or free active chlorine (FAC) refers to the amount of chlorine that is available to disinfect or kill microorganisms. Importantly, FAC covers many forms of chlorine, such as hypochlorous acid and hypohalite anion, in addition to freely available chlorine. Measurement and quantification of FAC is typically accomplished by a titration or colorimetric method. In certain embodiments, the eyelid cleanser composition contains 10 to 300 ppm of free available chlorine (FAC).
Table 1 illustrates the comparative stability of hypochlorous acid in the presence of various ingredients. The inventors determined that only specific ingredients disclosed in the disclosed embodiments are compatible with hypochlorous acid. For example, after 7 days in solution with sodium laureth sulfate, the FAC concentration decreased by about 4% per day.

[1] = FAC, component 0.01 M, time 2 days
[2] = component tested at 0.01 M in hypochlorous acid solution, start
[3] = component tested at 0.5%^, start
[4] = component tested at 0.50%, start

Compound: CC(C)(CO)C(O)C(=O)NCCCO (centres unmarked) [DI-Panthenol]
% change/day (FAC, component 1%, time 3 days): −26%
FAC End (component 1%, time 3 days): 23 ppm
FAC Start (component tested at 1%, start): 101 ppm

Compound: O=C(O)CC(O)(CC(=O)O)C(=O)O [Citric Acid]
% change/day [1]: −49%
FAC End (component 0.01 M, time 2 days): 5.1 ppm
FAC Start [2]: 188.9 ppm

Compound: CC(=O)O [Acetic Acid]
% change/day [1]: 2%
FAC End (component 0.01 M, time 2 days): 384.6 ppm
FAC Start [2]: 367.5 ppm

Compound: O=C([O-])CC(O)(CC(=O)[O-])C(=O)[O-].[Na+].[Na+].[Na+] [Sodium Citrate]
% change/day [1]: −49%
FAC End (component 0.01 M, time 2 days): 2.6 ppm
FAC Start [2]: 125.1 ppm

Compound: CCCCCCCCOC(=O)CC(C(=O)OCCCCCCCC)S(=O)(=O)O.[Na] (centres unmarked) [Dioctyl Sulfosuccinate Sodium]
% change/day (FAC, component 0.50%, time 10 days): −6%
% change/day (FAC, component 0.5%^, time 38 days): −1%
FAC End (component 0.50%, time 10 days): 113 ppm
FAC End (component 0.5%^, time 38 days): 194 ppm
FAC Start [4]: 289 ppm
FAC Start [3]: 289 ppm

Compound: CC(=O)[O-].[Na+] [Sodium Acetate]
% change/day: 2%
FAC End: 377 ppm
FAC Start: 362.1 ppm

The remaining lines, values ahead:

% change/day [1]: 16%
FAC End (component 0.01 M, time 2 days): 331.1 ppm
FAC Start [2]: 250 ppm
Compound: O=P([O-])([O-])O.[Na+].[Na+] [Sodium Dibasic Phosphate]

% change/day (FAC, component 0.5%^, time 238 days): 0%
FAC End (component 0.5%^, time 238 days): 11 ppm
FAC Start [3]: 267 ppm
Compound: CCCCCCCCCCCCOS(=O)(=O)[O-].[Na+] [Sodium Lauryl Sulfate]

% change/day (FAC, component 1%, time 3 days): −100%
FAC End (component 1%, time 3 days): 0 ppm
FAC Start (component tested at 1%, start): 3 ppm
degradation of hypochlorous acid (observation) (in the presence of the component): immediate degradation
Compound: CCCCCCCCCCO[C@@H]1O[C@H](CO)[C@@H](O)[C@H](O)[C@H]1O [Decyl Glucoside]

% change/day (FAC, component 1%, time 3 days): −11%
FAC End (component 1%, time 3 days): 67 ppm
FAC Start (component tested at 1%, start): 99 ppm
Compound: CC(O)CO (centres unmarked) [Propylene Glycol]

% change/day [1]: 2%
FAC End (component 0.01 M, time 2 days): 374.4 ppm
FAC Start [2]: 361.4 ppm
Compound: O=P([O-])(O)O.[Na+] [Sodium Monobasic Phosphate]

% change/day (FAC, component 1%, time 3 days): −17%
FAC End (component 1%, time 3 days): 50 ppm
FAC Start (component tested at 1%, start): 102 ppm
Compound: OCC(O)CO [Glycerin]

% change/day (FAC, component 0.50%, time 2 days): −16%
FAC End (component 0.50%, time 2 days): 264.9 ppm
FAC Start [4]: 391 ppm
Compound: Polysorbate 20

% change/day (FAC, component 0.5%^, time 7 days): −4%
FAC concentration decrease (after 7 days in solution): about 4 % per day
FAC End (component 0.5%^, time 7 days): 208 ppm
FAC Start [3]: 287 ppm
Compound: Sodium Laureth Sulfate
